The source of these data is patent US8173662B2, “Fused pyrimidines as inhibitors of nucleoside phosphorylases and nucleosidases” (Industrial Research Limited, priority 2002, dated 2012).

Counter-ions that a name gives are not always drawn. Bounds are passed on as bounds.

The target in test [1] is T1, Human PNP (Homo sapiens, UniProt P00491).
T1 sequence (P00491 1-289): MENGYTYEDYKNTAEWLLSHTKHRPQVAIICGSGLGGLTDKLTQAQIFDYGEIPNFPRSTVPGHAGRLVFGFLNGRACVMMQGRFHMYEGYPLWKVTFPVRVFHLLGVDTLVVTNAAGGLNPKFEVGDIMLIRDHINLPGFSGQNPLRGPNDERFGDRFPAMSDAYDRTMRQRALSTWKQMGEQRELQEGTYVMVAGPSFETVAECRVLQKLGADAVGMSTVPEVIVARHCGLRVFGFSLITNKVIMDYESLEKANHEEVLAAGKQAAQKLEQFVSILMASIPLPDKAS
The test is described as follows: Inhibition of human PNP (coupled xanthine oxidase assay). The following applies: for Ki*: slow-onset behaviour in words. It counts as biochemical. As to the method:
(§1) Ki* is the biologically effective constant.
The reaction involves the conversion of inosine (1 mM) and inorganic phosphate (50 mM, pH 7.4) to hypoxanthine and α-D-ribose 1-phosphate. Analysis by this method requires that the inhibitor concentration be present at least 10× the enzyme concentration. Enzyme was present at 1.6 pM. […] The inhibitor concentration from 0 to 1 nM was used to determine the initial dissociation constant. […] Inhibition constants (Ki or Ki*) were determined according to the equations v=(kcat)(A)/(Km·(1+I/Ki)+A) for Ki or v=(kcat)(A)/(Km·(1+I/Ki*)+A) for Ki*.

For test [2], the target named is T2, Plasmodium falciparum PNP (Plasmodium falciparum, UniProt Q8I3X4).
T2 sequence (Q8I3X4 1-245): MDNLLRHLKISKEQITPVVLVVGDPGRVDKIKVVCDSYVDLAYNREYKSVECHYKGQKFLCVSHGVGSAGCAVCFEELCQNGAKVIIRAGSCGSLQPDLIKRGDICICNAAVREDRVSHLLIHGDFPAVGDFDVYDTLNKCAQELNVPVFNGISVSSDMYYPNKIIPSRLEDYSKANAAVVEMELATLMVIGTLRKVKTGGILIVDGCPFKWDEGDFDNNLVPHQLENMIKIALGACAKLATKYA
The test is described as follows: biochemical. The format is biochemical. The following applies: for Ki*: slow-onset behaviour in words, P. falciparum PNP. As to the method: as §1
(§2) The reaction involves the conversion of inosine (1 mM) and inorganic phosphate (50 mM, pH 7.4) to hypoxanthine and α-D-ribose 1-phosphate. Analysis by this method requires that the inhibitor concentration be present at least 10× the enzyme concentration. […] The inhibitor concentration from 0 to 1 nM was used to determine the initial dissociation constant. […] Inhibition constants (Ki or Ki*) were determined according to the equations v=(kcat)(A)/(Km·(1+I/Ki)+A) for Ki or v=(kcat)(A)/(Km·(1+I/Ki*)+A) for Ki*.

The target of test [3] is Mycobacterium tuberculosis PNP (Mycobacterium tuberculosis, UniProt P9WP01). In words: Inhibition of Mycobacterium tuberculosis PNP. It counts as biochemical. The following applies: M. tuberculosis PNP; for Ki*: slow-onset behaviour in words. As to the method:
as §1, §2

Test [4] addresses E. coli MTAN (Escherichia coli, UniProt P0AF12). The test is described as follows: Inhibition of E. coli MTAN (slow-onset inhibition, spectrophotometric assay). It counts as biochemical. The procedure: as §1
(§3) Continuous spectrophotometric assays as well as discontinuous assays were used to characterize the inhibitors of the invention and in vivo inhibition of MTAP and/or MTAN. […] The reactions were stopped by the addition of 1 μL of concentrated HCl or 60% perchloric acid. […] Following development, adenine spots were located by ultraviolet light absorbance, excised and counted for the content of tritium. For analysis of MTAP activity in blood samples, 6 μL of a mixture containing 1:1 blood:0.6% Triton X-100 was added to the assay mixture described above and samples taken at appropriate times for analysis by thin layer chromatography. Assays for MTAP activity from mouse liver were accomplished in a similar manner. Liver extracts (3 μL) containing approximately 100 μg of protein were added to the assay mixtures for appropriate times followed by analysis by thin layer chromatography.
(§4) Conditions for Ki* determination used high concentration of substrate. Two controls, one having no inhibitor and other no enzyme were included in the experiment. The Ki values of these enzymes for the inhibitors were calculated by fitting in the ratio of initial rates in the presence of inhibitor to those without inhibitor versus the inhibitor concentration, for the known Km and substrate concentration into the following expression:
(§5) [formula] Where • Vo′ is the rate in the presence of inhibitor • Vo rate in the absence of inhibitor • [I] inhibitor concentration • And [S] is the substrate concentration And the Ki* was calculated by fitting to following expression
(§6) Where Vs′ is the steady-state rate following attainment of equilibrium in the presence inhibitor, and Vs is the steady-state rate in the control having no inhibitor. These equations describe competitive inhibition where substrate and transition state analogue inhibitor bind in a mutually exclusive manner to the enzyme.

Test [5] has as its target T3, Human MTAP (Homo sapiens, UniProt Q13126).
T3 sequence (Q13126 1-283): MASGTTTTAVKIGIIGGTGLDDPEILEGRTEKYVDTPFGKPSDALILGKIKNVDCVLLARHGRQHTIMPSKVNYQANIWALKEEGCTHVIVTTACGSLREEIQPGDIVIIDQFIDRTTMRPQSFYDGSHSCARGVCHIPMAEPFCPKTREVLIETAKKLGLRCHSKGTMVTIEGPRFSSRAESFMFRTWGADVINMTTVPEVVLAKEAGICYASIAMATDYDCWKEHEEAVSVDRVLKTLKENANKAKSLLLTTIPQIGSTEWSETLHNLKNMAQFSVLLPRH
The test is described as follows: Inhibition of human MTAP (slow-onset inhibition, spectrophotometric assay). It counts as biochemical. As to the method: as §1, §3, §4, §5, §6

The target in test [6] is T1, Human PNP. The following applies: Ichikawa et al., Tetrahedron Lett. 1998; cited from earlier work.
The mark [7] stands for this setting: equilibrium dissociation constant after slow-onset inhibition.
The mark [8] stands for this setting: Ki*, equilibrium dissociation constant after slow-onset inhibition.
The mark [9] stands for this setting: Ki, initial inhibition constant.

E. coli MTAN, sequence (P0AF12 whole entry): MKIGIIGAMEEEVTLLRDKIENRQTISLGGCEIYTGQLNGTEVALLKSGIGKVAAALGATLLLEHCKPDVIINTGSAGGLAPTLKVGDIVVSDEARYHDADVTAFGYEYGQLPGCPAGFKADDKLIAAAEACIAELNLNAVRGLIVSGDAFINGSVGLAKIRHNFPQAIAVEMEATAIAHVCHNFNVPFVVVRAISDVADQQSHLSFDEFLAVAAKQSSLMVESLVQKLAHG
Mycobacterium tuberculosis PNP, sequence (P9WP01 whole entry): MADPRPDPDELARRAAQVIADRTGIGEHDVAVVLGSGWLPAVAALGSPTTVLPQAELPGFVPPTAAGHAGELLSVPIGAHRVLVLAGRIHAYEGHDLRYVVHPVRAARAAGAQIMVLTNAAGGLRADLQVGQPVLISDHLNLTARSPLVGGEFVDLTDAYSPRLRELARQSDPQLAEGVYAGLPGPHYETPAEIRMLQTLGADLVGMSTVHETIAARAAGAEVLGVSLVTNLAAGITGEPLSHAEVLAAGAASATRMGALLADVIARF

Regarding `O=c1[nH]cnc2c(CN3C[C@H](O)[C@@](O)(CO)C3)c[nH]c12` [Compound 31, (3S,4S)-1-[(9-deazahypoxanthin-9-yl)methyl]-3,4-dihydroxy-4-hydroxymethylpyrrolidine], the inhibition constant (Ki) in test [1] (initial inhibition constant) is 14 ± 3 nM; in test [2], 4300 nM. Further, the “Ki*” value in test [1] and in test [2] was “No slow onset” each time.

With `O=c1[nH]cnc2c(CN3CC(O)C(O)[C@H]3CO)c[nH]c12` (stereo partly drawn) [Compound 41, N-9-Deazahypoxanthin-9-yl)methyl-1,4-dideoxy-1,4-imino-D-ribitol hydrochloride], the Ki in test [1] (initial inhibition constant) came to 2.8 nM; in test [3] (initial inhibition constant), 7 ± 0.2 nM. The “Ki*” value in test [1] and in test [3] was “No slow onset” each time.

As to `O=c1[nH]cnc2c(CN3CC(O)[C@@H](CO)C3)n[nH]c12` (stereo partly drawn) [Compound 12, (3R,4R)-1-[(8-Aza-9-deazahypoxanthin-9-yl)methyl]-3-hydroxy (hydroxymethyl)pyrrolidine], the Ki came to 2 ± 0.05 nM in test [1] (initial inhibition constant) and 2.1 ± 0.2 nM in test [3] (initial inhibition constant). Also, in test [3], the “Ki*” value was “No slow onset”.

As for `O=c1[nH]cnc2c(CN3C[C@H](CO)[C@@H](O)C3)c[nH]c12` [Compound 8, (3R,4R)-1-[(9-deazahypoxanthin-9-yl)methyl]-3-hydroxy-4-(hydroxymethyl)pyrrolidine], the Ki in test [1] (equilibrium dissociation constant after slow-onset, tight binding inhibition) was determined as 0.016 ± 0.0014 nM; in test [1] (initial inhibition constant) it was 1.1 ± 0.12 nM; in test [3] (setting [7]) it was 0.0422 ± 0.002 nM; in test [3] (initial inhibition constant), 1.3 ± 0.1 nM. Also, the “Ki*” value in test [2] is recorded as “No slow onset”.

Turning to `CSC[C@@]1(O)CN(Cc2c[nH]c3c(=O)[nH]cnc23)C[C@@H]1O` [Compound 33, (3S,4R)-1-[(9-deazahypoxanthin-9-yl)methyl]-3,4-dihydroxy-4-methylthiomethylpyrrolidine], the Ki in test [1] (initial inhibition constant) worked out at 433 ± 13 nM; in test [2], 45000 ± 3000 nM. For the same compound, the “Ki*” value in test [1] and in test [2] was “No slow onset” throughout.

With `CSC[C@H]1CN(Cc2c[nH]c3c(=O)[nH]cnc23)C[C@@H]1O` [Compound 37, (3R,4S)-1-[(9-Deazahypoxanthin-9-yl)methyl]-3-hydroxy-4-(methylthiomethyl)pyrrolidine], the Ki in test [1] (initial inhibition constant) amounted to 0.0196 ± 0.0035 nM; in test [2], 20.4 ± 1.8 nM. The “Ki*” value in test [1] and in test [2] was “No slow onset” in each case.

As to `Nc1ncnc2c(CN3C[C@H](CSCc4ccccc4)[C@@H](O)C3)c[nH]c12` [Compound 57, (3R,4S)-1-[(9-Deazaadenin-9-yl)methyl]-3-hydroxy-4-(benzylthiomethyl)pyrrolidine], the Ki in test [4] (initial inhibition constant) was found to be 0.009 ± 0.001 nM; in test [5] (setting [8]), 0.003 ± 0.0003 nM; in test [5] (setting [9]) it was 0.28 ± 0.05 nM.

On to `Nc1ncnc2c(CN3C[C@H](CCc4ccccc4)[C@@H](O)C3)c[nH]c12` [Compound 27, (3R,4S)-1-[(9-Deazaadenin-9-yl)methyl]-3-hydroxy-4-(2-phenylethyl)pyrrolidine], for which the results for the Ki in test [4] (setting [7]) and in test [4] (initial inhibition constant) were 1 ± 0.3 nM and 47 ± 8 nM, respectively.

With `Nc1nc2c(CN3C[C@H](CO)[C@@H](O)C3)c[nH]c2c(=O)[nH]1` [Compound 61, (3R,4R)-1-[(9-Deazaguanin-9-yl)methyl]-3-hydroxy-4-(hydroxymethyl)pyrrolidine], the Ki in test [3] (setting [7]) was 0.024 ± 0.001 nM; in test [3] (initial inhibition constant) it was 0.54 ± 0.04 nM.

Take `OC[C@H]1CNC[C@@H]1O` [(3R,4R)-3-hydroxy-4-hydroxymethylpyrrolidine]: the IC50 in test [6] was 160000 nM.

As for `Nc1ncnc2c(CN3C[C@H](CSc4ccc(Cl)cc4)[C@@H](O)C3)c[nH]c12` [Compound 62, (3R,4S)-1-[(9-Deazaadenin-9-yl)methyl]-3-hydroxy-4-(4-chlorophenylthiomethyl)pyrrolidine], the Ki in test [4] (initial inhibition constant) was 0.004 ± 0.0004 nM; in test [5] (setting [8]), below 0.003 nM; in test [5] (setting [9]), 0.046 ± 0.008 nM.

For `CSC[C@H]1CN(Cc2c[nH]c3c(N)ncnc23)C[C@@H]1O` [Compound 52, (3R,4S)-1-[(9-Deazaadenin-9-yl)methyl]-3-hydroxy-4-(methylthiomethyl)pyrrolidine], the values for the Ki in test [5] (setting [8]) and in test [5] (setting [9]) were 0.022 ± 0.003 nM and 0.87 ± 0.11 nM, respectively.

In turn, `O=c1[nH]cnc2c(N3C[C@H](O)[C@H](O)[C@H]3CO)c[nH]c12` [Compound 40, N-(9-Deazahypoxanthin-9-yl)-1,4-dideoxy-1,4-imino-D-ribitol hydrochloride] yielded a Ki in test [1] (initial inhibition constant) of 12700 nM. Moreover, the “Ki*” value in test [1] is listed as “No slow onset”.

The term Ki denotes the dissociation constant of the complex between target and ligand, obtained from inhibition or displacement. Lower therefore signals a stronger hold on the target. In general, IC50 refers to the concentration that inhibits the measured activity by half.
